The values that follow come from patent US6979686B1, “Substituted pyrazoles as p38 kinase inhibitors” (Pharmacia Corporation, priority 2001, dated 2005).

For the first assay, the target named is T1, human p38 kinase alpha (Homo sapiens, UniProt Q16539).
T1 construct: GST (N, cleaved yes); made in house; host or cells: E. coli DH10B
T1 sequence (Q16539 whole entry): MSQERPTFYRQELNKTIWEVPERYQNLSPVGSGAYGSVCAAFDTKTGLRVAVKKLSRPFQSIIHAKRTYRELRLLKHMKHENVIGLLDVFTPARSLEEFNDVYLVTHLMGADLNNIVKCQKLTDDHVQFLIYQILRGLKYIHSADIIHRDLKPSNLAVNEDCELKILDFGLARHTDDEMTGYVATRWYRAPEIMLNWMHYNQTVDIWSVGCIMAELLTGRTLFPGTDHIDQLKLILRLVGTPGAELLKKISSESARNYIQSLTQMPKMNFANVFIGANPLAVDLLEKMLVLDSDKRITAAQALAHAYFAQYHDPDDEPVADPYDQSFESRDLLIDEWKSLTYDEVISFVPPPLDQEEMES
Description: p38 kinase in vitro assay, phosphorylation of biotinylated PHAS-I with 32P-ATP. The class given is biochemical. As to conditions: @ 1.0 uM.
`O=C(NCCc1[nH]nc(-c2ccc(F)cc2)c1-c1ccncc1)Nc1ccccc1F` [Example B-1038]: the “P38 alpha kinase % inhib @ conc. (uM)” value is 57.0% @.

For the molecule `C=CCNC(=O)NCCc1[nH]nc(-c2ccc(F)cc2)c1-c1ccncc1` [Example B-1040], the “P38 alpha kinase % inhib @ conc. (uM)” value is reported as 72.0% @.

On to `CCCNC(=O)NCCc1[nH]nc(-c2ccc(F)cc2)c1-c1ccncc1` [Example B-1041], for which the “P38 alpha kinase % inhib @ conc. (uM)” value was found to be 70.0% @.

With `C[C@H](NC(=O)NCCc1[nH]nc(-c2ccc(F)cc2)c1-c1ccncc1)c1ccccc1` [Example B-1042], the “P38 alpha kinase % inhib @ conc. (uM)” value turned out to be 79.0% @.

Consider `O=C(NCCc1[nH]nc(-c2ccc(F)cc2)c1-c1ccncc1)Nc1ccccc1` [Example B-1043], for which the “P38 alpha kinase % inhib @ conc. (uM)” value was determined as 64.0% @.

As to `O=C(NCCc1ccccc1)NCCc1[nH]nc(-c2ccc(F)cc2)c1-c1ccncc1` [Example B-1044], the “P38 alpha kinase % inhib @ conc. (uM)” value stood at 94.0% @.

In the case of `O=C(NCCc1[nH]nc(-c2ccc(F)cc2)c1-c1ccncc1)Nc1cccc(F)c1` [Example B-1046], the “P38 alpha kinase % inhib @ conc. (uM)” value is recorded as 72.0% @.

Turning to `COc1ccc(NC(=O)NCCc2[nH]nc(-c3ccc(F)cc3)c2-c2ccncc2)cc1` [Example B-1047], the “P38 alpha kinase % inhib @ conc. (uM)” value was 72.0% @.

`CCN(CC)C(=O)NCCc1[nH]nc(-c2ccc(F)cc2)c1-c1ccncc1` [Example B-1048]: the “P38 alpha kinase % inhib @ conc. (uM)” value is reported as 67.0% @.

Consider `CCNC(=O)NCCc1[nH]nc(-c2ccc(F)cc2)c1-c1ccncc1` [Example B-1049], for which the “P38 alpha kinase % inhib @ conc. (uM)” value is given as 67.0% @.

Consider `O=C(Cc1cccs1)NCCc1[nH]nc(-c2ccc(F)cc2)c1-c1ccncc1` [Example B-1051], for which the “P38 alpha kinase % inhib @ conc. (uM)” value came to 68.0% @.

Turning to `CC(C)(C)C(=O)NCCc1[nH]nc(-c2ccc(F)cc2)c1-c1ccncc1` [Example B-1052], the “P38 alpha kinase % inhib @ conc. (uM)” value stood at 69.0% @.

As to `CCCOC(=O)NCCc1[nH]nc(-c2ccc(F)cc2)c1-c1ccncc1` [Example B-1053], the “P38 alpha kinase % inhib @ conc. (uM)” value turned out to be 78.0% @.

Regarding `CCOC(=O)NCCc1[nH]nc(-c2ccc(F)cc2)c1-c1ccncc1` [Example B-1054], the “P38 alpha kinase % inhib @ conc. (uM)” value came out at 79.0% @.

Take `CC(C)OC(=O)NCCc1[nH]nc(-c2ccc(F)cc2)c1-c1ccncc1` [Example B-1057]: the “P38 alpha kinase % inhib @ conc. (uM)” value was found to be 85.0% @.

The same assay, now with this note: in vitro P38-alpha kinase inhibition; read-out: P38 alpha kinase IC50.
As usually defined, the IC50 is the concentration needed to halve the response being measured. As for `CC(=O)Nc1nc(C)c(S(=O)(=O)NCCc2[nH]nc(-c3ccc(F)cc3)c2-c2ccncc2)s1` [Example B-1058], the IC50 came to 0.66 µM.

With `O=S(=O)(NCCc1[nH]nc(-c2ccc(F)cc2)c1-c1ccncc1)c1ccc(Cl)cc1` [Example B-1061], the IC50 worked out at 0.03 µM.

Consider `O=C(O)c1ccccc1S(=O)(=O)NCCc1[nH]nc(-c2ccc(F)cc2)c1-c1ccncc1` [Example B-1065], for which the IC50 was found to be 0.56 µM.

As for `O=S(=O)(NCCc1[nH]nc(-c2ccc(F)cc2)c1-c1ccncc1)c1cc(Cl)ccc1Cl` [Example B-1066], the IC50 was less than 0.1 µM.

Take `Cc1cc(C)c(S(=O)(=O)NCCc2[nH]nc(-c3ccc(F)cc3)c2-c2ccncc2)c(C)c1` [Example B-1067]: the IC50 was 1.6 µM.

As for `O=S(=O)(NCCc1[nH]nc(-c2ccc(F)cc2)c1-c1ccncc1)c1cccc2ccccc12` [Example B-1069], the IC50 turned out to be 0.22 µM.

`O=[N+]([O-])c1ccccc1CS(=O)(=O)NCCc1[nH]nc(-c2ccc(F)cc2)c1-c1ccncc1` [Example B-1070]: the IC50 was less than 0.1 µM.

Turning to `O=S(=O)(NCCc1[nH]nc(-c2ccc(F)cc2)c1-c1ccncc1)c1cccc2cccnc12` [Example B-1071], the IC50 was less than 0.1 µM.

Consider `CC(C)c1ccc(S(=O)(=O)NCCc2[nH]nc(-c3ccc(F)cc3)c2-c2ccncc2)cc1` [Example B-1074], for which the IC50 turned out to be 0.23 µM.

For the molecule `O=S(=O)(NCCc1[nH]nc(-c2ccc(F)cc2)c1-c1ccncc1)c1ccc(F)cc1Cl` [Example B-1077], the IC50 is less than 0.1 µM.

As for `N#Cc1ccccc1S(=O)(=O)NCCc1[nH]nc(-c2ccc(F)cc2)c1-c1ccncc1` [Example B-1078], the 50% inhibitory concentration (IC50) is 0.26 µM.

On to `Cc1ccc(F)cc1S(=O)(=O)NCCc1[nH]nc(-c2ccc(F)cc2)c1-c1ccncc1` [Example B-1079], for which the IC50 is less than 0.1 µM.

Consider `O=S(=O)(NCCc1[nH]nc(-c2ccc(F)cc2)c1-c1ccncc1)c1c(Cl)cccc1Cl` [Example B-1081], for which the IC50 is less than 0.1 µM.

As to `O=S(=O)(NCCc1[nH]nc(-c2ccc(F)cc2)c1-c1ccncc1)c1ccccc1Br` [Example B-1082], the IC50 was less than 0.1 µM.

Consider `O=S(=O)(NCCc1[nH]nc(-c2ccc(F)cc2)c1-c1ccncc1)c1cccc(Br)c1` [Example B-1083], for which the IC50 was less than 0.1 µM.

For `O=S(=O)(NCCc1[nH]nc(-c2ccc(F)cc2)c1-c1ccncc1)c1ccccc1C(F)(F)F` [Example B-1086], the IC50 is less than 0.1 µM.

As for `O=S(=O)(NCCc1[nH]nc(-c2ccc(F)cc2)c1-c1ccncc1)c1ccc(C(F)(F)F)cc1` [Example B-1087], the IC50 worked out at 0.05 µM.

As to `CCc1ccc(S(=O)(=O)NCCc2[nH]nc(-c3ccc(F)cc3)c2-c2ccncc2)cc1` [Example B-1088], the IC50 was 0.73 µM.

As for `Cc1cccc(S(=O)(=O)NCCc2[nH]nc(-c3ccc(F)cc3)c2-c2ccncc2)c1` [Example B-1089], the IC50 is less than 0.1 µM.

For `O=S(=O)(NCCc1[nH]nc(-c2ccc(F)cc2)c1-c1ccncc1)c1cccc(Cl)c1` [Example B-1090], the IC50 was less than 0.1 µM.

With `O=S(=O)(NCCc1[nH]nc(-c2ccc(F)cc2)c1-c1ccncc1)c1ccccc1Cl` [Example B-1091], the IC50 is less than 0.1 µM.

As for `O=S(=O)(NCCc1[nH]nc(-c2ccc(F)cc2)c1-c1ccncc1)c1cc(Cl)cc(Cl)c1` [Example B-1092], the IC50 amounted to 0.27 µM.

`O=S(=O)(NCCc1[nH]nc(-c2ccc(F)cc2)c1-c1ccncc1)c1ccc(F)c(Cl)c1` [Example B-1094]: the half-maximal inhibitory concentration (IC50) was 0.013 µM.

As for `Cc1cccc(Cl)c1S(=O)(=O)NCCc1[nH]nc(-c2ccc(F)cc2)c1-c1ccncc1` [Example B-1095], the IC50 was less than 0.1 µM.

Take `Cc1ccc(C)c(S(=O)(=O)NCCc2[nH]nc(-c3ccc(F)cc3)c2-c2ccncc2)c1` [Example B-1096]: the IC50 was less than 0.1 µM.

On to `Cc1ccccc1S(=O)(=O)NCCc1[nH]nc(-c2ccc(F)cc2)c1-c1ccncc1` [Example B-1097], for which the IC50 was less than 0.1 µM.

`COc1ccc(C)cc1S(=O)(=O)NCCc1[nH]nc(-c2ccc(F)cc2)c1-c1ccncc1` [Example B-1098]: the IC50 is less than 0.1 µM.

`O=S(=O)(NCCc1[nH]nc(-c2ccc(F)cc2)c1-c1ccncc1)c1cccc(C(F)(F)F)c1` [Example B-1099]: the IC50 is 0.26 µM.

Regarding `CC1(C)C2CCC1(S(=O)(=O)NCCc1[nH]nc(-c3ccc(F)cc3)c1-c1ccncc1)C(=O)C2` (stereo not drawn) [Example B-1100], the IC50 worked out at 0.22 µM.

`O=S(=O)(NCCc1[nH]nc(-c2ccc(F)cc2)c1-c1ccncc1)c1ccc(Cl)s1` [Example B-1101]: the IC50 worked out at 0.026 µM.

On to `COc1ccc(Br)cc1S(=O)(=O)NCCc1[nH]nc(-c2ccc(F)cc2)c1-c1ccncc1` [Example B-1102], for which the IC50 was 0.035 µM.

Regarding `O=S(=O)(NCCc1[nH]nc(-c2ccc(F)cc2)c1-c1ccncc1)c1ccc2ccccc2c1` [Example B-1103], the IC50 was found to be 0.094 µM.

Consider `Cc1noc(C)c1S(=O)(=O)NCCc1[nH]nc(-c2ccc(F)cc2)c1-c1ccncc1` [Example B-1104], for which the IC50 was found to be 0.12 µM.

Consider `O=S(=O)(NCCc1[nH]nc(-c2ccc(F)cc2)c1-c1ccncc1)c1cccc2nonc12` [Example B-1105], for which the IC50 was less than 0.1 µM.

For the molecule `COc1ccc(Cl)cc1S(=O)(=O)NCCc1[nH]nc(-c2ccc(F)cc2)c1-c1ccncc1` [Example B-1106], the 50% inhibitory concentration (IC50) is less than 0.1 µM.

Take `N#Cc1ccc(S(=O)(=O)NCCc2[nH]nc(-c3ccc(F)cc3)c2-c2ccncc2)cc1` [Example B-1107]: the IC50 stood at 0.057 µM.

For the molecule `O=C(NCc1ccc(S(=O)(=O)NCCc2[nH]nc(-c3ccc(F)cc3)c2-c2ccncc2)s1)c1ccccc1` [Example B-1108], the IC50 came to 0.22 µM.

Turning to `O=S(=O)(NCCc1[nH]nc(-c2ccc(F)cc2)c1-c1ccncc1)c1ccc(-c2ccccc2)cc1` [Example B-1109], the IC50 is 0.054 µM.

In the case of `Cc1c(C)c(S(=O)(=O)NCCc2[nH]nc(-c3ccc(F)cc3)c2-c2ccncc2)c(C)c2c1OC(C)(C)CC2` [Example B-1110], the IC50 was 0.47 µM.

With `O=S(=O)(NCCc1[nH]nc(-c2ccc(F)cc2)c1-c1ccncc1)c1ccc(-c2ccccn2)s1` [Example B-1111], the IC50 worked out at 0.19 µM.

Regarding `O=S(=O)(NCCc1[nH]nc(-c2ccc(F)cc2)c1-c1ccncc1)c1cc(S(=O)(=O)c2ccccc2)cs1` [Example B-1112], the IC50 came to 0.58 µM.

In the case of `O=S(=O)(NCCc1[nH]nc(-c2ccc(F)cc2)c1-c1ccncc1)c1ccc(-c2ccon2)s1` [Example B-1113], the IC50 was less than 0.1 µM.

For the molecule `Cn1cnc(S(=O)(=O)NCCc2[nH]nc(-c3ccc(F)cc3)c2-c2ccncc2)c1` [Example B-1114], the IC50 was 0.069 µM.

On to `CN(C)S(=O)(=O)NCCc1[nH]nc(-c2ccc(F)cc2)c1-c1ccncc1` [Example B-1115], for which the IC50 turned out to be 0.024 µM.

Regarding `O=S(=O)(NCCc1[nH]nc(-c2ccc(F)cc2)c1-c1ccncc1)c1ccc(S(=O)(=O)c2ccccc2)s1` [Example B-1116], the IC50 came to 0.41 µM.

As to `O=S(=O)(NCCc1[nH]nc(-c2ccc(F)cc2)c1-c1ccncc1)c1cccc2cnccc12` [Example B-1118], the IC50 was found to be 0.33 µM.

On to `Cc1ccc(S(C)(=O)=O)cc1S(=O)(=O)NCCc1[nH]nc(-c2ccc(F)cc2)c1-c1ccncc1` [Example B-1119], for which the IC50 came to 0.35 µM.

Consider `Cc1ccc(C(=O)NCCc2[nH]nc(-c3ccc(F)cc3)c2-c2ccncc2)cc1` [Example B-1122], for which the IC50 came to 1.84 µM.

Turning to `O=C(NCCc1[nH]nc(-c2ccc(F)cc2)c1-c1ccncc1)c1cccc(C(F)(F)F)c1` [Example B-1123], the IC50 stood at 2.93 µM.

Regarding `O=C(NCCc1[nH]nc(-c2ccc(F)cc2)c1-c1ccncc1)c1cc2ccccc2s1` [Example B-1124], the IC50 was determined as 1.49 µM.

On to `CC(C)c1cc(C(C)C)c(C(=O)NCCc2[nH]nc(-c3ccc(F)cc3)c2-c2ccncc2)c(C(C)C)c1` [Example B-1125], for which the IC50 was determined as 0.56 µM.
